Data reported in US4710498A, “Pyridyloxy derivatives” (Ikeda Mohando Co., Ltd., priority 1984, dated 1987).
Read-outs that look alike come from different tables or passages of the source.

What was measured:
[1] = system: Gastric Acid Secretion Induced by Histamine; experiment: Inhibition effect on gastric acid secretion induced by histamine in pylorus ligated rat (subcutaneous); format: in vivo, male Wistar rat; details: Rattus norvegicus; 0.2 mg/kg SC; histamine 3 mg/kg SC; average of five runs; read-out: Secretion of Gastric Acid in Rat, Inhibition Rate (%)
Method: (§1) A male Wistar rat having a body weight of about 160 g and which had not fed for 24 hours was anesthetized by an intraperitoneal dose of 1.2 g/kg of urethane. After ligating of pylorus and esophagus, the gaster anterior was incised and fitting with a double polyethylene cannula. The wall of the stomach was rinsed with 5 ml of saline at 30 minutes intervals, and the quantity of gastric acid contained in each rinsing solution was measured by titration.
The basal acid secretion was initially measured three times, and then 0.2 mg/kg of each of the compounds of this invention was administered subcutaneously and 3 mg/kg of histamine was administered subcutaneously after the lapse of an additional 30 minutes.
(§2) The quantity of gastric acid secreted after the operation was measured continuously for 3 hours. Within that measurement interval, three time points at which the increase in acid secretion reached a maximum level were selected, and the average quantity of gastric acid secreted at those time points was taken as the increase in acid secretion, which was compared with the increase in acid secretion of the control group to calculate the percent inhibition for secretion of gastric acid (Table 1). [formula] (The result was shown as the average value of five runs.)

[2] = system: Gastric Acid Secretion Induced by Histamine; experiment: Inhibitory effect of intraduodenally administered compounds on gastric acid secretion induced by histamine in rat; format: in vivo, male Wistar rat; details: for ED50: Rattus norvegicus, intraduodenal, 30 minutes before histamine SC, first series (Table 2-1), read-out: Median effective dose (ED50) inhibiting Gastric Acid Section (95% Reliability Limit); for Efficacy Ratio relative to Cimetidine (Cimetidine = 1): rat, in vivo
Method: The test was conducted by an improved method based on that reported by Watanabe et al., in "Pharmacometrics", Vol. 3, No. (1), pages 7 to 14 (1969).
as §1, §2

[3] = molecular target: T1, Histamine H2 -Receptor (Cavia porcellus, UniProt P47747); experiment: biochemical; set-up: species or system male Hartley guinea pig; details: negative logarithm of molar concentration; isolated guinea pig atrium; read-out: Antagonistic Action against Histamine H2 -Receptor (pA2) Determined by Using Atrium isolated from Guinea Pig (converted)
T1 construct: from tissue; host or cells: isolated right atrium of male Hartley guinea pig
T1 sequence (P47747 whole entry): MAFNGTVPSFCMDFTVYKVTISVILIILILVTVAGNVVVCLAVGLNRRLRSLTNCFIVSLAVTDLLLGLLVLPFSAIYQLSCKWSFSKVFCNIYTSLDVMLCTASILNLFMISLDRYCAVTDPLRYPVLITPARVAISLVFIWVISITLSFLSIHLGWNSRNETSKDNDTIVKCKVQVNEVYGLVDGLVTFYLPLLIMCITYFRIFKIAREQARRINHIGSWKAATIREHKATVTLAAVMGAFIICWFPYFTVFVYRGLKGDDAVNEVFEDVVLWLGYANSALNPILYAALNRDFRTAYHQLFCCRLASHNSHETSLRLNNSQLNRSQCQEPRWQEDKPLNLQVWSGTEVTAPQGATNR
Method: A male Hartley guinea pig having a body weight of about 400 g was killed by cervical dislocation, and the atrium thereof was isolated and was suspended in an organ bath containing […] of a modified Ringer solution and subjected to a tension of 1 g. The number of heart beats under such condition was recorded using a polygraph.
Initially, from 1×10^-7 mol to 3×10^-4 mol of histamine was allowed to act accumulatively to depict the curve of the dosage-reaction relationship. Likewise, the curve of the dosage of histamine-reaction relationship was depicted in the presence of 5×10^-7 mol to 1×10^-6 mol of the test sample which was injected 3 minutes before. The negative logarithm (pA2) of the molar concentration of the test sample required for moving the curve obtained by single administration of histamine parallel to the right side by a two-times concentration was calculated.

[4] = Acute toxicity test on mice dosed orally; format: in vivo; details: mouse, in vivo, po
Method: (§3) Male ddy mice each having a body weight of about 22 g and which had not eaten for 8 hours were orally dosed with the test samples, and the general symptoms and fatalities were observed from the time immediately following the administration to 14 days after the administration.
(§4) The median lethal dose (LD50) was calculated in accordance with the Litchfield and Wilcoxon Method.

[5] = system: Mice; experiment: Acute toxicity test on mice dosed orally; format: in vivo; details: orally, mice
Method: as §3, §4

[6] = P.O., 14 days observation, Litchfield and Wilcoxon Method, read-out: Median lethal dose (LD50)

Row | Compound | inhibition in vivo at 0.2 mg/kg [1] | ED50 [2] | Efficacy Ratio relative to Cimetidine (Cimetidine = 1) [2] | Kb [3] | LD50 at 336 h [4, 6] | acute toxicity / LD50 (in words) [5] | LD50 at 336 h [4]
1 | CNc1c(NC/C=C\COc2cc(CN3CCCCC3)ccn2)c(=O)c1=O [Ex. 2, 1-methylamino-2-[4-<4-(1-piperidinomethyl)pyridyl-2-oxy>-cis-2-butenylamino]-1-cyclobuten-3,4-dione] | 60% | 0.27 mg/kg | 25.9 | 174 nM | > 1500 mg/kg | – | –
2 | O=c1nc(NC/C=C\COc2cc(CN3CCCCC3)ccn2)[nH]cc1Cc1cccnc1 [Ex. 22, 2-[4-<4-(1-piperidinomethyl)pyridyl-2-oxy>-cis-2-butenylamino]-5-(3-pyridylmethyl)-1H-pyrimidin-4-one] | 40% | – | – | 363 nM | 1600 mg/kg | lower LD50 values than that of Cimetidine | –
3 | CNc1n[s+]([O-])nc1NC/C=C\COc1cc(CN(C)C)ccn1 (stereo not drawn) [Ex. 12, 3-methylamino-4-<4-(4-dimethylaminomethylpyridyl-2-oxy)-cis-2-butenylamino>-1,2,5-thiadiazole-1-oxide] | 91% | – | – | 263 nM | > 1500 mg/kg | – | –
4 | Cn1nc(N)nc1NC/C=C\COc1cc(CN2CCCCC2)ccn1 [Ex. 19, 3-amino-1-methyl-5-[4-<4-(1-piperidinomethyl)pyridyl-2-oxy>-cis-2-butenylamino]-1H-1,2,4-triazole] | 3% | – | – | 759 nM | > 1500 mg/kg | – | –
5 | Nc1n[s+]([O-])nc1NC/C=C/COc1cc(CN2CCCCC2)ccn1 (stereo not drawn) [Ex. 9, 3-amino-4-[4-<4-(1-piperidinomethyl)pyridyl-2-oxy>-trans-2-butenylamino]-1,2,5-thiadiazole-1-oxide] | 62% | 0.46 mg/kg | 15.2 | 339 nM | > 1500 mg/kg | – | –
6 | CN(C)Cc1ccnc(OC/C=C\CNc2n[s+]([O-])nc2N)c1 (stereo not drawn) [Ex. 11, 3-amino-4-<4-(4-dimethylaminomethylpyridyl-2-oxy)-cis-2-butenylamino>-1,2,5-thiadiazole-1-oxide] | 101% | – | – | 490 nM | > 1500 mg/kg | – | –
7 | Nc1n[nH]c(=O)nc1NC/C=C\COc1cc(CN2CCCCC2)ccn1 [Ex. 27, 6-amino-5-[4-<4-(1-piperidinomethyl)pyridyl-2-oxy>-cis-2-butenylamino]-1,2,4-triazin-3-one] | 88% | – | – | 275 nM | > 1500 mg/kg | – | –
8 | Nc1c(NC/C=C\COc2cc(CN3CCCCC3)ccn2)c(=O)c1=O [Ex. 1, 1-amino-2-[4-<4-(1-piperidinomethyl)pyridyl-2-oxy>-cis-2-butenylamino]-1-cyclobuten-3,4-dione] | 54% | 0.15 mg/kg | – | 339 nM | – | – | > 1500 mg/kg
9 | Cn1nc(N)c(NC/C=C\COc2cc(CN3CCCCC3)ccn2)nc1=O [Ex. 29, 6-amino-2-methyl-5-[4-<4-(1-piperidinomethyl)pyridyl-2-oxy>-cis-2-butenylamino]-1,2,4-triazin-3-one] | 74% | – | – | 708 nM | 1250 mg/kg | lower LD50 values than that of Cimetidine | –
